Reference: patent publication US20250092066A1, “SUBSTITUTED BICYCLIC HETEROCYCLES AS MALT-1 INHIBITORS” (AURIGENE ONCOLOGY LIMITED, priority 2022, published 2025)

Molecular target: MALT-1 (Isoform1) (Homo sapiens (Human), UniProt Q9UDY8)
Test: Biochemical fluorescent assay of MALT-1 (Isoform1) enzyme inhibition
Settings: recombinant MALT-1 (Isoform1); for inhibition at 1 µM / Percent Inhibition (@ 1 μM): compound at 1 μM; for inhibition at 1 µM: read-out: Percent Inhibition (@ 1 μM); for IC50: 50 μM AC-LRSR-MAC substrate, 240 min
Method: The potency of compounds to inhibit MALT-1 (Isoform1) enzyme was tested in a Fluorescent assay using recombinant MALT-1 (Isoform1, aa-840) generated in-house. The assay buffer was 50 mM HEPES (pH 7.5), 100 mM NaCl, 10 mM DTT, 1 mM EDTA, 0.9 M sodium citrate, 0.01% CHAPS. 1.5 nM of MALT-1 enzyme was incubated with various concentrations of test compounds ([…]) (1% DMSO) in the presence of buffer for 30 minutes at 30° C. The protease reaction was initiated by adding 50 μM of AC-LRSR-MAC (Peptide International, USA) substrate and incubated for 240 min. After 240 min incubation, fluorescence emission of the samples at 460 nm was measured at an excitation of 355 nm. The percent inhibition was calculated using the following formula: […]. IC50 values were determined by fitting the dose-response data to sigmoidal curve fitting equation using Graph pad prism software VS.

MALT-1 (Isoform1), sequence (Q9UDY8 whole entry, canonical isoform): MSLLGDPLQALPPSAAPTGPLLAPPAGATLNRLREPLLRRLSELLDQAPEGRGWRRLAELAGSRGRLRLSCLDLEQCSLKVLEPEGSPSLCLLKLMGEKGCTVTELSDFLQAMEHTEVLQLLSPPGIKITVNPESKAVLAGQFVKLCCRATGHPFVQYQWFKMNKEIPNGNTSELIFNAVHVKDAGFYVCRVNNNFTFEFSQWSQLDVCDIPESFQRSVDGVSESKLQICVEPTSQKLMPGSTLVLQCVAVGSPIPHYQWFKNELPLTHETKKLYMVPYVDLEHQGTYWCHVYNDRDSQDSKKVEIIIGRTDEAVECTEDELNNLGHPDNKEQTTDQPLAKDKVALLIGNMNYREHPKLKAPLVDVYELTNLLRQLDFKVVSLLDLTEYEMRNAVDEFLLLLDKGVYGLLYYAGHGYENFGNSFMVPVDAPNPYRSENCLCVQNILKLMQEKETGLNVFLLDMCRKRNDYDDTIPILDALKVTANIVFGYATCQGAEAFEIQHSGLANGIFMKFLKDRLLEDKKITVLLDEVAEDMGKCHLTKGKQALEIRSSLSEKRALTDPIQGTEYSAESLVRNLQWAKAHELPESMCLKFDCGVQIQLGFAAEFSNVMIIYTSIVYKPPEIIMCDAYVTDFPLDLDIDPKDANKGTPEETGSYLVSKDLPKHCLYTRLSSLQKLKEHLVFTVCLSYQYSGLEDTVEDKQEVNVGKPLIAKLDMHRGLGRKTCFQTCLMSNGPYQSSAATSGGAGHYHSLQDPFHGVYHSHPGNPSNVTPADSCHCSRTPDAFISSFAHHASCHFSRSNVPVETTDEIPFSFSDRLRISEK

inhibition at 1 µM | IC50 | Percent Inhibition (@ 1 μM) | Structure (SMILES)
100% | < 0.05 µM |  | COC(c1c(NC(=O)Nc2cc(F)c3nc(C)nn3c2)cnc2cc(Cl)nn12)C(C)C (racemic) [Example 31, 1-(2-chloro-7-(1-methoxy-2-methylpropyl)pyrazolo[1,5-a]pyrimidin-6-yl)-3-(8-fluoro-2-methyl-[1,2,4]triazolo[1,5-a]pyridin-6-yl)urea]
100% | < 0.05 µM |  | COC(c1c(NC(=O)Nc2cc(F)c3nc(C)nn3c2)cnc2cc(Cl)nn12)C1CC1 (racemic) [Example 32, 1-(2-chloro-7-(cyclopropyl(methoxy)methyl)pyrazolo[1,5-a]pyrimidin-6-yl)-3-(8-fluoro-2-methyl-[1,2,4]triazolo[1,5-a]pyridin-6-yl)urea]
98% | < 0.05 µM |  | CCC(OC)c1c(NC(=O)Nc2cc(F)c3nc(C)nn3c2)cnc2cc(Cl)nn12 (racemic) [Example 33, 1-(2-chloro-7-(1-methoxypropyl)pyrazolo[1,5-a]pyrimidin-6-yl)-3-(8-fluoro-2-methyl-[1,2,4]triazolo[1,5-a]pyridin-6-yl)urea]
71% | > 0.25 µM |  | COC(C)c1c(NC(=O)Nc2cc(Cl)c3ncnn3c2)cnc(C)c1Br (racemic) [Example 34, 1-(5-bromo-4-(1-methoxyethyl)-6-methylpyridin-3-yl)-3-(8-chloro-[1,2,4]triazolo[1,5-a]pyridin-6-yl)urea]
72% | > 0.25 µM |  | COC(C)c1c(NC(=O)Nc2cc(Cl)c3nc(C)nn3c2)cnc(C)c1Br (racemic) [Example 35, 1-(5-bromo-4-(1-methoxyethyl)-6-methylpyridin-3-yl)-3-(8-chloro-2-methyl-[1,2,4]triazolo[1,5-a]pyridin-6-yl)urea]
100% | < 0.05 µM |  | COC(c1c(NC(=O)Nc2cc(F)c3nc(C)nn3c2)cnc2cc(Cl)nn12)C(C)C (single isomer, unassigned) [Example 31a, 1-(2-chloro-7-(1-methoxy-2-methylpropyl)pyrazolo[1,5-a]pyrimidin-6-yl)-3-(8-fluoro-2-methyl-[1,2,4]triazolo[1,5-a]pyridin-6-yl)urea]
 | < 0.05 µM | 99% | COC(c1c(NC(=O)Nc2cc(F)c3nc(C)nn3c2)cnc2cc(Cl)nn12)C(C)C (single isomer, unassigned) [Example 31b, 1-(2-chloro-7-(1-methoxy-2-methylpropyl)pyrazolo[1,5-a]pyrimidin-6-yl)-3-(8-fluoro-2-methyl-[1,2,4]triazolo[1,5-a]pyridin-6-yl)urea]
96% | 0.051 to 0.25 µM |  | COC(c1c(NC(=O)Nc2cc(F)c3nc(C)nn3c2)cnc2cc(Cl)nn12)C1CC1 (single isomer, unassigned) [Example 32a, 1-(2-chloro-7-(cyclopropyl(methoxy)methyl)pyrazolo[1,5-a]pyrimidin-6-yl)-3-(8-fluoro-2-methyl-[1,2,4]triazolo[1,5-a]pyridin-6-yl)urea]
 | < 0.05 µM | 99% | COC(c1c(NC(=O)Nc2cc(F)c3nc(C)nn3c2)cnc2cc(Cl)nn12)C1CC1 (single isomer, unassigned) [Example 32b, 1-(2-chloro-7-(cyclopropyl(methoxy)methyl)pyrazolo[1,5-a]pyrimidin-6-yl)-3-(8-fluoro-2-methyl-[1,2,4]triazolo[1,5-a]pyridin-6-yl)urea]
99% | < 0.05 µM |  | CCC(OC)c1c(NC(=O)Nc2cc(F)c3nc(C)nn3c2)cnc2cc(Cl)nn12 (single isomer, unassigned) [Example 33a, 1-(2-chloro-7-(1-methoxypropyl)pyrazolo[1,5-a]pyrimidin-6-yl)-3-(8-fluoro-2-methyl-[1,2,4]triazolo[1,5-a]pyridin-6-yl)urea]
 | 0.051 to 0.25 µM | 96% | CCC(OC)c1c(NC(=O)Nc2cc(F)c3nc(C)nn3c2)cnc2cc(Cl)nn12 (single isomer, unassigned) [Example 33b, 1-(2-chloro-7-(1-methoxypropyl)pyrazolo[1,5-a]pyrimidin-6-yl)-3-(8-fluoro-2-methyl-[1,2,4]triazolo[1,5-a]pyridin-6-yl)urea]
79% | 0.051 to 0.25 µM |  | COC(C)c1c(NC(=O)Nc2cc(Cl)c3ncnn3c2)cnc(C)c1Br (single isomer, unassigned) [Example 34a, 1-(5-bromo-4-(1-methoxyethyl)-6-methylpyridin-3-yl)-3-(8-chloro-[1,2,4]triazolo[1,5-a]pyridin-6-yl)urea]
 | 0.051 to 0.25 µM | 88% | COC(C)c1c(NC(=O)Nc2cc(Cl)c3nc(C)nn3c2)cnc(C)c1Br (single isomer, unassigned) [Example 35a, 1-(5-bromo-4-(1-methoxyethyl)-6-methylpyridin-3-yl)-3-(8-chloro-2-methyl-[1,2,4]triazolo[1,5-a]pyridin-6-yl)urea]
 | > 0.25 µM | 8% | COC(C)c1c(NC(=O)Nc2cc(Cl)c3nc(C)nn3c2)cnc(C)c1Br (single isomer, unassigned) [Example 35b, 1-(5-bromo-4-(1-methoxyethyl)-6-methylpyridin-3-yl)-3-(8-chloro-2-methyl-[1,2,4]triazolo[1,5-a]pyridin-6-yl)urea]
97% | < 0.05 µM |  | CO[C@@H](C)c1c(NC(=O)Nc2cc(Cl)c3ncnn3c2)cnc2cc(Cl)nn12 [Example 2]
96% | < 0.05 µM |  | CO[C@@H](C)c1c(NC(=O)Nc2cc(Br)c3ncnn3c2)cnc2cc(Cl)nn12 [Example 3]
94% | 0.051 to 0.25 µM |  | CO[C@@H](C)c1c(NC(=O)Nc2cc(C(F)(F)F)c3ncnn3c2)cnc2cc(Cl)nn12 [Example 4]
98% | < 0.05 µM |  | CO[C@@H](C)c1c(NC(=O)Nc2cc(Cl)c3nc(C)nn3c2)cnc2cc(Cl)nn12 [Example 5]
97% | < 0.05 µM |  | CO[C@@H](C)c1c(NC(=O)Nc2cc(Cl)c3nc(C4CC4)nn3c2)cnc2cc(Cl)nn12 [Example 6]
96% | < 0.05 µM |  | CO[C@@H](C)c1c(NC(=O)Nc2cc(Cl)c3nc(C(C)C)nn3c2)cnc2cc(Cl)nn12 [Example 7]

inhibition at 1 µM | IC50 | Percent Inhibition (@ 1 μM) | Structure (SMILES)
94% | < 0.05 µM |  | CO[C@@H](C)c1c(NC(=O)Nc2cc(Cl)c3nc(C(F)(F)F)nn3c2)cnc2cc(Cl)nn12 [Example 8]
92% | < 0.05 µM |  | CO[C@@H](C)c1c(NC(=O)Nc2cc(F)c3nc(C)nn3c2)cnc2cc(Cl)nn12 [Example 9]
38% | > 0.25 µM |  | COc1cc(NC(=O)Nc2cnc3cc(Cl)nn3c2[C@H](C)OC)cn2nc(C)nc12 [Example 10]
98% | < 0.05 µM |  | CO[C@@H](C)c1c(NC(=O)Nc2cc(C(F)(F)F)c3nc(C)nn3c2)cnc2cc(Cl)nn12 [Example 11]
81% | 0.051 to 0.25 µM |  | Cc1nc2c(F)cc(NC(=O)Nc3cnc4cc(Cl)nn4c3C3CCCO3)cn2n1 (centres unmarked) [Example 12]
84% | 0.051 to 0.25 µM |  | CO[C@@H](C)c1c(NC(=O)Nc2cc(F)c3nc(CO)nn3c2)cnc2cc(Cl)nn12 [Example 13]
99% | < 0.05 µM |  | CO[C@@H](C)c1c(NC(=O)Nc2cc(C#N)c3nc(C)nn3c2)cnc2cc(Cl)nn12 [Example 14]
79% | 0.051 to 0.25 µM |  | Cc1nc2c(F)cc(NC(=O)Nc3cnc4cc(Cl)nn4c3C3CC3)cn2n1 [Example 15]
90% | < 0.05 µM |  | Cc1nc2c(F)cc(NC(=O)Nc3cnc4cc(Cl)nn4c3C(C)C)cn2n1 [Example 16]
82% | < 0.05 µM |  | COCc1nc2c(F)cc(NC(=O)Nc3cnc4cc(Cl)nn4c3[C@H](C)OC)cn2n1 [Example 17]
98% | < 0.05 µM |  | CO[C@@H](C)c1c(NC(=O)Nc2cc(C#N)c3ncnn3c2)cnc2cc(Cl)nn12 [Example 18]
17% | > 0.25 µM |  | CO[C@@H](C)c1c(NC(=O)Nc2cn3nc(C)nc3c(Br)c2C)cnc2cc(Cl)nn12 [Example 19]
16% | > 0.25 µM |  | CO[C@@H](C)c1c(NC(=O)Nc2ccc3nncn3c2)cnc2cc(Cl)nn12 [Example 20]
96% | > 0.25 µM |  | CO[C@@H](C)[C@@H](OC)c1c(NC(=O)Nc2cc(F)c3nc(C)nn3c2)cnc2cc(Cl)nn12 [Example 21]
62% | > 0.25 µM |  | COCc1c(NC(=O)Nc2cc(F)c3nc(C)nn3c2)cnc2cc(Cl)nn12 [Example 22]
98% | > 0.25 µM |  | Cc1nc2c(F)cc(NC(=O)Nc3cnc4cc(Cl)nn4c3C3(C(F)(F)F)CC3)cn2n1 [Example 23]
80% | 0.051 to 0.25 µM |  | CO[C@@H](C)c1c(NC(=O)Nc2cc(F)c3nc(C)nn3c2)cnc2cc(F)nn12 [Example 24]
95% | < 0.05 µM |  | CO[C@@H](C)c1c(NC(=O)Nc2cc(F)c3nc(C)nn3c2)cnc2cc(Br)nn12 [Example 25]
71% | > 0.25 µM |  | CO[C@@H](C)c1c(NC(=O)Nc2cc(F)c3nc(C)nn3c2)cnc2cc(OC(F)F)nn12 [Example 26]
87% | 0.051 to 0.25 µM |  | CO[C@@H](C)c1c(NC(=O)Nc2cc(F)c3ncnn3c2)cnc2cc(C(F)(F)F)nn12 [Example 27]
